For one assay, the target named is T1, HCV NS3/4A protease complex, BMS strain (genotype 1a) (UniProt P27958, C1454S/C1711G, species not given/STRAIN_BMS).
T1 construct: b1001: DNA encoding the recombinant HCV NS3/4A protease complex (amino acids 1027 to 1711) ... a three-lysine solubilizing tail was added at the 3′-end of the NS4A coding region; fused on or other part: Three-lysine solubilising tail at the C-terminus of NS4A; A His tag is implied by the pET21b vector and Ni-NTA purification
Briefly: Recombinant HCV NS3/4A protease complex FRET peptide assay, BMS strain. The assay is classed as biochemical. Conditions: NS3/4A BMS Strain; activity range classes. The text has this:
Recombinant HCV NS3/4A Protease Complex FRET Peptide Assay
The purpose of this in vitro assay was to measure the inhibition of HCV NS3 protease complexes, derived from the BMS strain, H77C strain or J416S strain, as described below, by compounds of the present invention. This assay provides an indication of how effective compounds of the present invention would be in inhibiting HCV proteolytic activity.
Serum from an HCV-infected patient was obtained from Dr. T. Wright, San Francisco Hospital. An engineered full-length cDNA (compliment deoxyribonucleic acid) template of the HCV genome (BMS strain) was constructed from DNA fragments obtained by reverse transcription-PCR (RT-PCR) of serum RNA (ribonucleic acid) and using primers selected on the basis of homology between other genotype 1a strains. From the determination of the entire genome sequence, a genotype 1a was assigned to the HCV isolate according to the classification of Simmonds et al. (See P Simmonds, K A Rose, S Graham, S W Chan, F McOmish, B C Dow, E A Follett, P L Yap and H Marsden, J. Clin. Microbiol., 31(6), 1493–1503 (1993)). […] The infectious clones, H77C (1a genotype) and J4L6S (1b genotype) were obtained from R. Purcell (NIH) and the sequences are published in Genbank (AAB67036, see Yanagi, M., Purcell, R. H., Emerson, S. U. and Bukh, J. Proc. Natl. Acad. Sci. U.S.A. 94(16), 8738–8743 (1997); AF054247, see Yanagi, M., St Claire, M., Shapiro, M., Emerson, S. U., Purcell, R. H. and Bukh, J, Virology 244 (1), 161–172. (1998)).
The H77C and J4L6S strains were used for production of recombinant NS3/4A protease complexes. DNA encoding the recombinant HCV NS3/4A protease complex (amino acids 1027 to 1711) for these strains were manipulated as described by P. Gallinari et al. (see Gallinari P, Paolini C, Brennan D, Nardi C, Steinkuhler C, De Francesco R. Biochemistry. 38(17):5620–32, (1999)). Briefly, a three-lysine solubilizing tail was added at the 3′-end of the NS4A coding region. The cysteine in the P1 position of the NS4A-NS4B cleavage site (amino acid 1711) was changed to a glycine to avoid the proteolytic cleavage of the lysine tag. Furthermore, a cysteine to serine mutation was introduced by PCR at amino acid position 1454 to prevent the autolytic cleavage in the NS3 helicase domain. The variant DNA fragment was cloned in the pET21b bacterial expression vector (Novagen) and the NS3/4A complex was expressed in Escherichia coli strain BL21 (DE3) (Invitrogen) following the protocol described by P. Gallinari et al. (see Gallinari P, Brennan D, Nardi C, Brunetti M, Tomei L, Steinkuhler C, De Francesco R., J. Virol. 72(8):6758–69 (1998)) with modifications. Briefly, NS3/4A expression was induced with 0.5 mM Isopropyl β-D-1-thiogalactopyranoside (IPTG) for 22 hr at 20° C. A typical fermentation (10 L) yielded approximately 80 g of wet cell paste. The cells were resuspended in lysis buffer (10 mL/g) consisting of 25 mM N-(2-Hydroxyethyl)piperazine-N′-(2-Ethane Sulfonic acid) (HEPES), pH7.5, 20% glycerol, 500 mM Sodium Chloride (NaCl), 0.5% Triton-X100, 1 microgram/milliliter (“μg/mL”) lysozyme, 5 mM Magnesium Chloride (MgCl2), 1 ug/ml DnaseI, 5 mM β-Mercaptoethanol (βME), Protease inhibitor—Ethylenediamine Tetraacetic acid (EDTA) free (Roche), homogenized and incubated for 20 mins at 4° C. The homogenate was sonicated and clarified by ultra-centrifugation at 235000 g for 1 hr at 4° C. Imidazole was added to the supernatant to a final concentration of 15 mM and the pH adjusted to 8.0. The crude protein extract was loaded on a Nickel-Nitrilotriacetic acid (Ni-NTA) column pre-equilibrated with buffer B (25 mM HEPES, pH8.0, 20% glycerol, 500 mM NaCl, 0.5% Triton-X100, 15 mM imidazole, 5 mM βME). The sample was loaded at a flow rate of 1 mL/min. The column was washed with 15 column volumes of buffer C (same as buffer B except with 0.2% Triton-X100). The protein was eluted with 5 column volumes of buffer D (same as buffer C except with 200 mM Imidazole). […]
Broadly, the IC50 is the midpoint of a concentration-inhibition curve. As for `COc1ccc2c(O[C@@H]3C[C@H]4C(=O)N[C@]5(C(=O)O)C[C@H]5/C=C\CCCOC[C@H](NC(=O)OC(C)(C)C)C(=O)N4C3)nccc2c1` [Compound 84, (1S,4R,6S,14S,18R)-7-cis-14-tert-Butoxycarbonylamino-18-(6-methoxyisoquinolin-1-yloxy)-2,15-dioxo-12-oxa-3,16-diazatricyclo[14.3.0.0^4,6]-nonadec-7-ene-4-carboxylic acid], the IC50 lay within 50 to 500 nM.
The same measure, in the same setting: with `CC(C)(C)OC(=O)N[C@H]1CN(S(=O)(=O)c2ccccc2[N+](=O)[O-])CCC/C=C\[C@@H]2C[C@@]2(C(=O)O)NC(=O)[C@@H]2C[C@@H](Oc3nccc4ccccc34)CN2C1=O` [Compound 144] the figure was 500 to 5000 nM.

Staying with this assay, now noted: NS3/4A BMS strain; activity range symbols.
`CC(C)S(=O)(=O)NC(=O)[C@@]12C[C@H]1/C=C\CCCCC[C@H](NC(=O)OC(C)(C)C)C(=O)N1C[C@H](Oc3nccc4ccccc34)C[C@H]1C(=O)N2` [Compound 3, [18-(Isoquinolin-1-yloxy)-2,15-dioxo-4-(propane-2-sulfonylaminocarbonyl)-3,16-diaza-tricyclo-[14.3.0.0^4,6]nonadec-7-en-14-yl]-carbamic acid tert-butyl ester]: the half-inhibitory concentration (IC50) is less than 50 nM.
As to `CCC1(S(=O)(=O)NC(=O)C23CC2C=CCCCSCC(NC(=O)NC2CCCC2)C(=O)N2CC(Oc4nccc5cc(OC)ccc45)CC2C(=O)N3)CC1` (stereo not shown) [Compound 46], the IC50 was less than 50 nM.
On the same count and under the same terms, with `COCC(=O)NC1CCCCCC=CC2CC2(C(=O)NS(=O)(=O)C2CC2)NC(=O)C2CC(Oc3nccc4ccccc34)CN2C1=O` (stereo not shown) [Compound 24] the figure was less than 50 nM; with `CCCC1(S(=O)(=O)NC(=O)[C@@]23C[C@H]2CCCCCCC[C@H](NC(=O)OC(C)(C)C)C(=O)N2C[C@H](Oc4nccc5ccccc45)C[C@H]2C(=O)N3)CC1` [Compound 7, [18-(Isoquinolin-1-yloxy)-2,15-dioxo-4-(1-propyl-cyclopropanesulfonylaminocarbonyl)-3,16-diaza-tricyclo[14.3.0.0^4,6]nonadec-14-yl]-carbamic acid tert-butyl ester], less than 50 nM; with `CC(C)(C)OC(=O)N[C@H]1CCCCCCC[C@@H]2C[C@@]2(C(=O)NS(=O)(=O)C2CC2)NC(=O)[C@@H]2C[C@@H](Oc3nccc4ccccc34)CN2C1=O` [Compound 10, [4-Cyclopropanesulfonylaminocarbonyl-18-(isoquinolin-1-yloxy)-2,15-dioxo-3,16-diaza-tricyclo[14.3.0.0^4,6]nonadec-14-yl]-carbamic acid tert-butyl ester], less than 50 nM.
Same read-out and setting: with `COc1ccc2c(OC3CC4C(=O)NC5(C(=O)NS(=O)(=O)C6(C)CC6)CC5C=CCCCSCC(NC(=O)NC5CCCC5)C(=O)N4C3)nccc2c1` (stereo not shown) [Compound 43] the figure was less than 50 nM; with `COc1ccc2c(OC3CC4C(=O)NC5(C(=O)NS(=O)(=O)C6CC6)CC5C=CCCCOC(C)C(NC(=O)NC5CCCC5)C(=O)N4C3)nccc2c1` (stereo not shown) [Compound 65], less than 50 nM; with `CC(C)(C)OC(=O)N[C@H]1CCCCC/C=C\[C@@H]2C[C@@]2(C(=O)NS(=O)(=O)C2CC2)NC(=O)[C@@H]2C[C@@H](Oc3nc(-c4ccccc4)cc4ccccc34)CN2C1=O` [Compound 58, [(Z)-(1S,4R,14S,18R)-4-cyclopropanesulfonylaminocarbonyl-2,15-dioxo-18-(3-phenyl-isoquinolin-1-yloxy)-3,16-diaza-tricyclo[14.3.0.0^4,6]nonadec-7-en-14-yl]-carbamic acid tert-butyl ester], less than 50 nM.
On the same count and under the same terms, to `CC(C)(C)COC(=O)N[C@H]1CCCCC/C=C\[C@@H]2C[C@@]2(C(=O)NS(=O)(=O)C2CC2)NC(=O)[C@@H]2C[C@@H](Oc3nccc4ccccc34)CN2C1=O` [Compound 13, [4-Cyclopropanesulfonylaminocarbonyl-18-(isoquinolin-1-yloxy)-2,15-dioxo-3,16-diaza-tricyclo[14.3.0.0^4,6]nonadec-7-en-14-yl]-carbamic acid 2,2-dimethyl-propyl ester] belongs less than 50 nM; to `CCCC1(S(=O)(=O)NC(=O)[C@@]23C[C@H]2/C=C\CCCCC[C@H](NC(=O)OC(C)(C)C)C(=O)N2C[C@H](Oc4nccc5ccccc45)C[C@H]2C(=O)N3)CC1` [Compound 6, [18-(Isoquinolin-1-yloxy)-2,15-dioxo-4-(1-propyl-cyclopropanesulfonylaminocarbonyl)-3,16-diaza-tricyclo[14.3.0.0^4,6]nonadec-7-en-14-yl]-carbamic acid tert-butyl ester], less than 50 nM; to `CC(=O)NC1CCCCCC=CC2CC2(C(=O)NS(=O)(=O)C2CC2)NC(=O)C2CC(Oc3nccc4ccccc34)CN2C1=O` (stereo not shown) [Compound 26], less than 50 nM.
Regarding `CC(C)(C)OC(=O)N[C@H]1CCCCC/C=C\[C@@H]2C[C@@]2(C(=O)NS(=O)(=O)C2CCC2)NC(=O)[C@@H]2C[C@@H](Oc3nccc4ccccc34)CN2C1=O` [Compound 9, [4-Cyclobutanesulfonylaminocarbonyl-18-(isoquinolin-1-yloxy)-2,15-dioxo-3,16-diaza-tricyclo[14.3.0.0^4,6]nonadec-7-en-14-yl]-carbamic acid tert-butyl ester], the IC50 was less than 50 nM.
Same read-out and setting: with `COc1ccc2c(OC3CC4C(=O)NC5(C(=O)NS(=O)(=O)C6CC6)CC5C=CCCCCCC(NC(=O)N5CCCC5)C(=O)N4C3)nccc2c1` (stereo not shown) [Compound 60] the figure was less than 50 nM; with `O=C(CC1CC1)NC1CCCCCC=CC2CC2(C(=O)NS(=O)(=O)C2CC2)NC(=O)C2CC(Oc3nccc4ccccc34)CN2C1=O` (stereo not shown) [Compound 22], less than 50 nM.
On the same count and under the same terms, to `COc1ccc2c(OC3CC4C(=O)NC5(C(=O)NS(=O)(=O)C6CC6)CC5C=CCCCOC(C)C(NC(=O)OC(C)(C)C)C(=O)N4C3)nccc2c1` (stereo not shown) [Compound 62] belongs less than 50 nM; to `COc1ccc2c(OC3CC4C(=O)NC5(C(=O)NS(=O)(=O)C6(C)CC6)CC5C=CCOCCCC(NC(=O)OC(C)C)C(=O)N4C3)nccc2c1` (stereo not shown) [Compound 35], less than 50 nM.
Same read-out and setting: with `CCC1(S(=O)(=O)NC(=O)C23CC2C=CCCCSCC(NC(=O)OC(C)C)C(=O)N2CC(Oc4nccc5cc(OC)ccc45)CC2C(=O)N3)CC1` (stereo not shown) [Compound 44] the figure was less than 50 nM; with `COc1ccc2c(OC3CC4C(=O)NC5(C(=O)NS(=O)(=O)C6(C)CC6)CC5C=CCOCCCC(NC(=O)OC(C)(C)C)C(=O)N4C3)nccc2c1` (stereo not shown) [Compound 29], less than 50 nM; with `CC(C)(C)OC(=O)N[C@H]1CCCCC/C=C\[C@@H]2C[C@@]2(C(=O)NS(=O)(=O)C2CC2)NC(=O)[C@@H]2C[C@@H](Oc3nccc4ccccc34)CN2C1=O` [Compound 4, [4-Cyclopropanesulfonylaminocarbonyl-18-(isoquinolin-1-yloxy)-2,15-dioxo-3,16-diaza-tricyclo[14.3.0.0^4,6]nonadec-7-en-14-yl]-carbamic acid tert-butyl ester], less than 50 nM.
In the case of `COc1ccc2c(OC3CC4C(=O)NC5(C(=O)NS(=O)(=O)C6(C)CC6)CC5C=CCCCOC(C)C(NC(=O)OC(C)C)C(=O)N4C3)nccc2c1` (stereo not shown) [Compound 68], the concentration for half-maximal inhibition (IC50) was less than 50 nM.

These data come from US7173004B2, “Macrocyclic isoquinoline peptide inhibitors of hepatitis C virus” (Bristol-Myers Squibb Company, priority 2003, dated 2007).
